Results from US4428950A, “(Hetarylphenoxy)-(phenylpiperazinyl)-propanols, their preparation and drugs containing these compounds” (BASF Aktiengesellschaft, priority 1981, dated 1984).
Counter-ions that a name gives are not always drawn. Like-named read-outs stand apart in the source and are kept apart here.

Experiments:
[1] = test system: orientation hypermotility; test: Sedative action (orientation hypermotility induced by a new environment, mice); type: in vivo, mouse (NMRI, female); details: for effect in respect of sedation, % of that of chlorpromazine: relative to chlorpromazine; for Sedative effect R.A. (relative activity): chlorpromazine = 1.00; for sedative-neuroleptic properties: according to Table 1
Method: The substance was administered orally to 4-8 groups each comprising 3 female NMRI mice. The orientation hypermotility induced by a new environment is determined photoelectrically, 30 minutes after administration of the substance, over a period of 30 minutes. The ED 50%, ie. the dose which produces a 50% reduction in orientation hypermotility compared to placebo-treated control animals, is determined.

histamine bronchospasm = test: Broncholytic action (histamine-induced bronchospasm, guineapigs under urethane narcosis); type: in vivo, guineapig (Pirbright white); details: guineapig
Method: Male or female guineapigs (Pirbright white, weight 300-500 g) under urethane narcosis (1.5 g/kg administered intraperitoneally) are subjected to artificial respiration using a tracheal cannula. Bronchospasms are caused by intravenous injection of histamine dihydrochloride (1.0-4.64 μg/kg), and an antagonistic effect on these can be brought about by prior intravenous administration of the test substance. The spasms are recorded by the method of Konzett and Rossler (Naunyn Schmiedeberg's Arch. 195 (1940), 71), via inductive pressure sensors.

blood pressure = test: Hypotensive action (blood pressure in carotid artery of rats under urethane narcosis); type: in vivo, rat (Sprague-Dawley); details: for Hypotensive effect R.A. (relative activity): chlorpromazine = 1.00; for Hypotensive effect R.A. (relative activity) / ED20 / Hypotensive effect ED 20%: rat; for comparison with chlorpromazine, taking into account the hypotensive effect / hypotensive action, doses compared with chlorpromazine: in words; for ED20: read-out: Hypotensive effect ED 20%; for quotient of the sedative effective dose and the hypotensive effective dose, times more advantageous than for chlorpromazine: relative to chlorpromazine
Method: The blood pressure was measured in the carotid artery. The substance was administered either by introduction into a jugular vein (as an aqueous solution, at the rate of 1 ml/kg) or intraperitoneally as a suspension in tragacanth (at the rate of 10 ml/kg). The ED 20%, ie. the dose which produces a 20% lowering of the blood pressure, was determined from the linear regression of log dose (mg/kg) and relative lowering of the blood pressure (Δ%).

catalepsy = test: Cataleptic action (front extremities on 8 cm high bar, rats); type: in vivo, rat (Sprague-Dawley, female); details: for Cataleptic effect R.A. (relative activity): chlorpromazine = 1.00; for ED50: ip, read-out: Cataleptic effect ED 50%; for effect in respect of catalepsy, % of that of chlorpromazine: relative to chlorpromazine
Method: 30, 60, 120 and 240 minutes after intraperitoneal administration of the substance, female Sprague-Dawley rats were placed with the front extremities on an 8 cm high bar. If, because of postural rigidity, the animals remain in this position for longer than 15 seconds, they are regarded as cataleptic.

[2] = Table 1, mouse, oral, dose producing 50% reduction in orientation hypermotility, read-out: Sedative effect ED 50%
[3] = Table 1, rat, intraperitoneal, dose at which 50% of animals are cataleptic
[4] = Table 2, sedative ED 50% vs hypotensive ED 20% i.p.
[5] = ip, Table 2, i.p., dose which reduces the blood pressure by 20%
[6] = Table 2, mouse, oral, dose which reduces the motility by 50%, read-out: Sedative effect ED 50%
[7] = Table 2, sedative ED 50% vs hypotensive ED 20% i.v.
[8] = iv, Table 2, i.v., dose which reduces the blood pressure by 20%

SMILES: COc1cccc(N2CCN(CC(O)COc3ccc(-n4cncn4)cc3)CC2)c1 (stereo not drawn) [Example 1, 1-[4-(1,2,4-Triazol-1-yl)-phenoxy]-3-[4-(3-methoxyphenyl)-piperazin-1-yl]-propan-2-ol]
- ED50 ([1]; Mus musculus, po, read-out: sedative effect ED 50%): 7.6 mg/kg
- sedative action ([1]; in words): relatively slight sedative action
- effect in respect of sedation, % of that of chlorpromazine [1]: 28%
- inhibition of histamine bronchospasm (average) (histamine bronchospasm; 0.1 mg/kg intravenously): 87%
- broncholytic effect on the histamine bronchospasm (histamine bronchospasm; in words): strong broncholytic effect

SMILES: OC(COc1ccc(-n2cncn2)cc1)CN1CCN(c2ccc(F)cc2)CC1 (stereo not drawn) [Example 2, 1-[4-(1,2,4-Triazol-1-yl)-phenoxy]-3-[4-(4-fluorophenyl)-piperazin-1-yl]-propan-2-ol]
- Hypotensive effect R.A. (relative activity) (blood pressure; Table 1, i.v.): 0.08
- Q (quotient of the sedative effective dose and the hypotensive effective dose) (blood pressure; Table 1, hypotensive dose i.v.): 8.0
- comparison with chlorpromazine, taking into account the hypotensive effect (blood pressure): clearly superior to chlorpromazine
- ED20 (blood pressure; iv, Table 1, i.v., dose producing 20% lowering of blood pressure): 0.316 mg/kg
- quotient of the sedative effective dose and the hypotensive effective dose, times more advantageous than for chlorpromazine (blood pressure): 10 times
- Sedative effect R.A. (relative activity) ([1]; Table 1, mouse, oral): 0.84
- ED50 [1, 2]: 2.52 mg/kg
- sedative-neuroleptic properties ([1]; in words): powerful sedative-neuroleptic properties
- effect in respect of sedation, % of that of chlorpromazine [1]: 84%
- Cataleptic effect R.A. (relative activity) (catalepsy; Table 1, rat, intraperitoneal): 0.43
- ED50 (catalepsy; [3]): 10 mg/kg
- effect in respect of catalepsy, % of that of chlorpromazine (catalepsy): 43%

SMILES: OC(COc1ccc(-n2ccnc2)cc1)CN1CCN(c2ccc(F)cc2)CC1 (stereo not drawn) [Example 3, 1-[4-(Imidazol-1-yl)-phenoxy]-3-[4-(4-fluorophenyl)-piperazin-1-yl]-propan-2-ol]
- Hypotensive effect R.A. (relative activity) (blood pressure; Table 1, i.p.): 0.02
- Q (quotient of the sedative effective dose and the hypotensive effective dose) (blood pressure; Table 1, hypotensive dose i.p.): 0.3
- comparison with chlorpromazine, taking into account the hypotensive effect (blood pressure): clearly superior to chlorpromazine
- ED20 (blood pressure; ip, Table 1, i.p., dose producing 20% lowering of blood pressure): 10 mg/kg
- quotient of the sedative effective dose and the hypotensive effective dose, times more advantageous than for chlorpromazine (blood pressure): 43 times
- Sedative effect R.A. (relative activity) ([1]; Table 1, mouse, oral): 0.77
- ED50 [1, 2]: 2.75 mg/kg
- sedative-neuroleptic properties ([1]; in words): powerful sedative-neuroleptic properties
- effect in respect of sedation, % of that of chlorpromazine [1]: 77%
- Cataleptic effect R.A. (relative activity) (catalepsy; Table 1, rat, intraperitoneal): 0.2
- ED50 (catalepsy; [3]): 21.5 mg/kg
- effect in respect of catalepsy, % of that of chlorpromazine (catalepsy): 20%

SMILES: COc1ccccc1N1CCN(CC(O)COc2ccccc2-c2ccnc(N)n2)CC1 (stereo not drawn) [Example 5, 1-[2-(2-Aminopyrimidin-4-yl)-phenoxy]-3-[4-(2-methoxyphenyl)-piperazin-1-yl]-propan-2-ol]
- Hypotensive effect R.A. (relative activity) (blood pressure; Table 2, i.p.): 2.06
- Q (blood pressure; [4]): 413
- hypotensive action, doses compared with chlorpromazine (blood pressure; Table 2): at lower doses than chlorpromazine
- ED20 (blood pressure; [5]): 0.0795 mg/kg
- doses at which sedative side-effect is observed relative to hypotensive doses ([1]; Table 2): 400-1,300 times greater
- Sedative effect R.A. (relative activity) ([1]; Table 2, mouse, oral): 0.06
- ED50 [1, 6]: 32.8 mg/kg

SMILES: COc1ccccc1N1CCN(CC(O)COc2ccccc2-c2cc[nH]n2)CC1 (stereo not drawn) [Example 10, 1-[2-(Pyrazol-3-yl)-phenoxy]-3-[4-(2-methoxyphenyl)-piperazin-1-yl]-propan-2-ol.HCl]
- Hypotensive effect R.A. (relative activity) (blood pressure; Table 2, i.v.): 0.79
- Q (blood pressure; [7]): 442
- hypotensive action, doses compared with chlorpromazine (blood pressure; Table 2): at lower doses than chlorpromazine
- ED20 (blood pressure; [8]): 0.0328 mg/kg
- doses at which sedative side-effect is observed relative to hypotensive doses ([1]; Table 2): 400-1,300 times greater
- Sedative effect R.A. (relative activity) ([1]; Table 2, mouse, oral): 0.15
- ED50 [1, 6]: 14.5 mg/kg

SMILES: COc1ccccc1N1CCN(CC(O)COc2cccc(-c3cc[nH]n3)c2)CC1 (stereo not drawn) [Example 15, 1-[3-(Pyrazol-3-yl)-phenoxy]-3-[4-(2-methoxyphenyl)-piperazin-1-yl]-propan-2-ol.3HCl]
- Hypotensive effect R.A. (relative activity) (blood pressure; Table 2, i.v.): 1.39
- Q (blood pressure; [7]): 1,342
- hypotensive action, doses compared with chlorpromazine (blood pressure; Table 2): at lower doses than chlorpromazine
- ED20 (blood pressure; [8]): 0.0187 mg/kg
- doses at which sedative side-effect is observed relative to hypotensive doses ([1]; Table 2): 400-1,300 times greater
- Sedative effect R.A. (relative activity) ([1]; Table 2, mouse, oral): 0.08
- ED50 [1, 6]: 25.1 mg/kg

SMILES: CN(C)CCCN1c2ccccc2Sc2ccc(Cl)cc21 [chlorpromazine, reference compound]
- Hypotensive effect R.A. (relative activity) (blood pressure; Table 1, i.p.): 1.0
- Hypotensive effect R.A. (relative activity) (blood pressure; Table 1, i.v.): 1.0
- Q (quotient of the sedative effective dose and the hypotensive effective dose) (blood pressure; Table 1, hypotensive dose i.v.): 81.1
- Hypotensive effect ED 20% (blood pressure; Table 1, i.p., dose producing 20% lowering of blood pressure): 0.164
- Hypotensive effect ED 20% (blood pressure; Table 1, i.v., dose producing 20% lowering of blood pressure): 0.026
- Hypotensive effect R.A. (relative activity) (blood pressure; Table 2, i.p.): 1.00
- Hypotensive effect R.A. (relative activity) (blood pressure; Table 2, i.v.): 1.00
- Q (blood pressure; [4]): 13
- Q (blood pressure; [7]): 81
- ED20 (blood pressure; [5]): 0.164 mg/kg
- ED20 (blood pressure; [8]): 0.026 mg/kg
- Sedative effect R.A. (relative activity) ([1]; Table 1, mouse, oral): 1.0
- Sedative effect ED 50% ([1]; Table 1, mouse, oral, dose producing 50% reduction in orientation hypermotility): 2.11
- Sedative effect R.A. (relative activity) ([1]; Table 2, mouse, oral): 1.00
- ED50 (catalepsy; Rattus norvegicus): 4.3 mg/kg
- Cataleptic effect R.A. (relative activity) (catalepsy; Table 1, rat, intraperitoneal): 1.0
